How the values were obtained:
[1] = molecular target: T1, recombinant human ALK5 (TGF-βR1) protein (Homo sapiens, UniProt P36897); test: Biochemical ALK5 (TGF-βR1) assay to measure pKi (LANCE Ultra ULight kinase assay); conditions: apparent pKi from pIC50 by Cheng-Prusoff, read-out: ALK5 pKi (converted)
T1 construct: purchased Life Technologies PR9075A
T1 sequence (P36897 34-503): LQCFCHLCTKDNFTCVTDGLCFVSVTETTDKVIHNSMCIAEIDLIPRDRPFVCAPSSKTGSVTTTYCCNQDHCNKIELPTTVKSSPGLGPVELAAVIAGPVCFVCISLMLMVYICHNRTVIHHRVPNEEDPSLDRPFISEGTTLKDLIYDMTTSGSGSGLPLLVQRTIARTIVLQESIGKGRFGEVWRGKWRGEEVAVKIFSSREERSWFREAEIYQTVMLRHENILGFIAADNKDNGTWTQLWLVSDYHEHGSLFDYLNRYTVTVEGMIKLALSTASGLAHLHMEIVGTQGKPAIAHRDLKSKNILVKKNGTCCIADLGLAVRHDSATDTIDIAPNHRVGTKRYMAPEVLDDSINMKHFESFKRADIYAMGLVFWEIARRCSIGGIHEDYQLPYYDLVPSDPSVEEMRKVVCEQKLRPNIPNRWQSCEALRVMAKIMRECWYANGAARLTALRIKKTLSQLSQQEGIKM
Procedure, shortened: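 Compounds (10 μM to 25 pM) were preincubated 60 min at room temperature with enzyme, then reactions were started with ATP (125 μM stock, 5× final) and run 60 min at 37 °C. EDTA-containing Eu-anti-phospho-Topo IIα (Thr1342) antibody stopped the reaction; TR-FRET read at 665 nm. pIC50 from 4-parameter fit, converted to pKi via Cheng-Prusoff.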

[2] = test system: TGF-β-stimulated SMAD3 phosphorylation in BEAS-2B cells; test: Cellular ALK5 potency assay, inhibition of TGF-β stimulated pSMAD3 formation in BEAS-2B cells; type: cell-based; conditions: Homo sapiens; inhibition of TGF-β stimulated pSMAD3 formation, BEAS-2B cells; read-out: BEAS2B pIC50 (converted)
Procedure, shortened: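 AlphaLISA pSMAD3 read-out, beads incubated overnight. Human BEAS-2B cells: 1 h compound preincubation (37 °C, 5% CO2), then 30 min TGF-β at 10 ng/mL final, immediate lysis. Values are pIC50 relative to stimulated, compound-free baseline.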

Row | Compound | Ki [1] [nM] | IC50 [2] [nM]
1 | Cc1cccc(-c2[nH]cnc2-c2ccc3ncc(C(=O)OCCC4CCNC4)cc3c2)n1 (stereo not drawn) [Compound 1153, 2-pyrrolidin-3-ylethyl 6-[5-(6-methyl-2-pyridyl)-1H-imidazol-4-yl]quinoline-3-carboxylate] | 0.0398 to 0.316 | 25.1 to 158
2 | Cc1cccc(-c2[nH]cnc2-c2ccc3ncc(-c4ccc5c(c4)CC[C@H]5N)cc3c2)n1 [Compound 1154, (1R)-5-[6-[5-(6-methyl-2-pyridyl)-1H-imidazol-4-yl]-3-quinolyl]indan-1-amine] | < 0.0316 | < 20
3 | Cc1cccc(-c2[nH]ncc2-c2ccc3nccc(C(=O)O[C@H]4CC[C@@](C)(N)CC4)c3c2)n1 [Compound 1155, (4-amino-4-methyl-cyclohexyl) 6-[5-(6-methyl-2-pyridyl)-1H-pyrazol-4-yl]quinoline-4-carboxylate] | 3.98 to 31.6 | 200 to 1260
4 | Cc1cccc(-c2[nH]cnc2-c2ccc3ncc(-c4cc(C(=O)OCC5CNC5)ccn4)cc3c2)n1 [Compound 1157, azetidin-3-ylmethyl 2-[6-[5-(6-methyl-2-pyridyl)-1H-imidazol-4-yl]-3-quinolyl]pyridine-4-carboxylate] | 0.0398 to 0.316 | 25.1 to 158
5 | Cc1cccc(-c2[nH]cnc2-c2ccc3ncc(-c4ncc(C(=O)O[C@H]5CCNC5)cn4)cc3c2)n1 [Compound 1158, [(3S)-pyrrolidin-3-yl] 2-[6-[5-(6-methyl-2-pyridyl)-1H-imidazol-4-yl]-3-quinolyl]pyrimidine-5-carboxylate] | 0.0398 to 0.316 | 25.1 to 158
6 | Cc1cccc(-c2[nH]cnc2-c2ccc3ncc(-c4ncc(C(=O)O[C@H]5CCNC5)s4)cc3c2)n1 [Compound 1160, [(3S)-pyrrolidin-3-yl] 2-[6-[5-(6-methyl-2-pyridyl)-1H-imidazol-4-yl]-3-quinolyl]thiazole-5-carboxylate] | < 0.0316 | < 20
7 | Cc1cccc(-c2[nH]cnc2-c2ccc3nccc(C(=O)O[C@H]4CC[C@@](C)(N)CC4)c3c2)n1 [Compound 1161, (4-amino-4-methyl-cyclohexyl) 6-[5-(6-methyl-2-pyridyl)-1H-imidazol-4-yl]quinoline-4-carboxylate] | 3.98 to 31.6 | 200 to 1260
8 | Cc1cccc(-c2[nH]cnc2-c2ccc3ncc(NCC(=O)O)cc3c2)n1 [Compound 1162, 2-[[6-[5-(6-methyl-2-pyridyl)-1H-imidazol-4-yl]-3-quinolyl]amino]acetic acid] | 0.398 to 3.16 | 200 to 1260
9 | Cc1cccc(-c2[nH]cnc2-c2ccc3ncc(-c4ccc(C(=O)OC[C@@H]5CCCN5)cn4)cc3c2)n1 [Compound 1163, [(2S)-pyrrolidin-2-yl]methyl 6-[6-[5-(6-methyl-2-pyridyl)-1H-imidazol-4-yl]-3-quinolyl]pyridine-3-carboxylate] | 0.0398 to 0.316 | 25.1 to 158
10 | Cc1cccc(-c2[nH]ncc2-c2ccc3ncc(C(=O)OCCC4CCNC4)cc3c2)n1 (stereo not drawn) [Compound 1164, 2-pyrrolidin-3-ylethyl 6-[5-(6-methyl-2-pyridyl)-1H-pyrazol-4-yl]quinoline-3-carboxylate] | 0.0398 to 0.316 | 25.1 to 158
11 | Cc1cccc(-c2[nH]cnc2-c2ccc3ncc(-c4ccc(C(=O)OC[C@@H]5CCCCN5)cn4)cc3c2)n1 [Compound 1165, [(2S)-2-piperidyl]methyl 6-[6-[5-(6-methyl-2-pyridyl)-1H-imidazol-4-yl]-3-quinolyl]pyridine-3-carboxylate] | 0.0398 to 0.316 | 25.1 to 158
12 | Cc1cccc(-c2[nH]cnc2-c2ccc3ncc(-c4ncc(C(=O)O[C@@H]5CCNC5)s4)cc3c2)n1 [Compound 1166, [(3R)-pyrrolidin-3-yl] 2-[6-[5-(6-methyl-2-pyridyl)-1H-imidazol-4-yl]-3-quinolyl]thiazole-5-carboxylate] | 0.0398 to 0.316 | 25.1 to 158
13 | Cc1cccc(-c2[nH]cnc2-c2ccc3ncc(-c4ccc(C(=O)OCCN5CC[C@@H](N)C5)cn4)cc3c2)n1 [Compound 1167, 2-[(3R)-3-aminopyrrolidin-1-yl]ethyl 6-[6-[5-(6-methyl-2-pyridyl)-1H-imidazol-4-yl]-3-quinolyl]pyridine-3-carboxylate] | 0.0398 to 0.316 | 25.1 to 158
14 | Cc1cccc(-c2[nH]cnc2-c2ccc3ncc(-c4ccc(C(=O)OCCN5C[C@@H](C)N[C@@H](C)C5)cn4)cc3c2)n1 [Compound 1168, 2-[rac-(3S,5R)-3,5-dimethylpiperazin-1-yl]ethyl 6-[6-[5-(6-methyl-2-pyridyl)-1H-imidazol-4-yl]-3-quinolyl]pyridine-3-carboxylate] | 0.0398 to 0.316 | 25.1 to 158
15 | Cc1cccc(-c2[nH]cnc2-c2ccc3ncc(-c4csc(C(=O)OCCC5CNC5)c4)cc3c2)n1 [Compound 1169, 2-(azetidin-3-yl)ethyl 4-[6-[5-(6-methyl-2-pyridyl)-1H-imidazol-4-yl]-3-quinolyl]thiophene-2-carboxylate] | < 0.0316 | 25.1 to 158
16 | Cc1cccc(-c2[nH]cnc2-c2ccc3ncc(-c4ccc(C(=O)OC[C@H]5CCCN5)cn4)cc3c2)n1 [Compound 1170, [(2R)-pyrrolidin-2-yl]methyl 6-[6-[5-(6-methyl-2-pyridyl)-1H-imidazol-4-yl]-3-quinolyl]pyridine-3-carboxylate] | 0.0398 to 0.316 | 25.1 to 158
17 | Cc1cccc(-c2[nH]cnc2-c2ccc3ncc(-c4csc(C(=O)OC[C@H]5CC[C@H](N)CC5)c4)cc3c2)n1 [Compound 1171, (4-aminocyclohexyl)methyl 4-[6-[5-(6-methyl-2-pyridyl)-1H-imidazol-4-yl]-3-quinolyl]thiophene-2-carboxylate] | < 0.0316 | 25.1 to 158
18 | Cc1cccc(-c2[nH]cnc2-c2ccc3ncc(-c4nc(C(=O)OCCN5CCC[C@H](N)C5)cs4)cc3c2)n1 [Compound 1172, 2-[(3S)-3-amino-1-piperidyl]ethyl 2-[6-[5-(6-methyl-2-pyridyl)-1H-imidazol-4-yl]-3-quinolyl]thiazole-4-carboxylate] | < 0.0316 | 200 to 1260
19 | Cc1cccc(-c2[nH]ncc2-c2ccc3ncc(C(=O)OCCN4CCCCC4)cc3c2)n1 [Compound 1173, 2-(1-piperidyl)ethyl 6-[5-(6-methyl-2-pyridyl)-1H-pyrazol-4-yl]quinoline-3-carboxylate] | 0.0398 to 0.316 | 25.1 to 158
20 | Cc1cccc(-c2[nH]cnc2-c2ccc3ncc(-c4ccc(C(=O)OCCN5CCC[C@@H](N)C5)cn4)cc3c2)n1 [Compound 1174, 2-[(3R)-3-amino-1-piperidyl]ethyl 6-[6-[5-(6-methyl-2-pyridyl)-1H-imidazol-4-yl]-3-quinolyl]pyridine-3-carboxylate] | 0.0398 to 0.316 | 25.1 to 158
21 | Cc1cccc(-c2[nH]ncc2-c2ccc3nccc(C(=O)OCCN4C[C@@H](C)N[C@@H](C)C4)c3c2)n1 [Compound 1176, 2-[(3R,5S)-3,5-dimethylpiperazin-1-yl]ethyl 6-[5-(6-methyl-2-pyridyl)-1H-pyrazol-4-yl]quinoline-4-carboxylate] | 0.0398 to 0.316 | 25.1 to 158
22 | Cc1cccc(-c2[nH]ncc2-c2ccc3ncc(C(=O)O[C@H]4CC[C@@](C)(N)CC4)cc3c2)n1 [Compound 1177, (4-amino-4-methyl-cyclohexyl) 6-[5-(6-methyl-2-pyridyl)-1H-pyrazol-4-yl]quinoline-3-carboxylate] | 0.0398 to 0.316 | 25.1 to 158
23 | Cc1cccc(-c2[nH]cnc2-c2ccc3ncc(-c4csc(C(=O)OCCN5CCC[C@@H](N)C5)c4)cc3c2)n1 [Compound 1178, 2-[(3R)-3-amino-1-piperidyl]ethyl 4-[6-[5-(6-methyl-2-pyridyl)-1H-imidazol-4-yl]-3-quinolyl]thiophene-2-carboxylate] | 0.0398 to 0.316 | 25.1 to 158
24 | CN[C@H]1CC[C@H](OC(=O)c2ccnc3ccc(-c4cn[nH]c4-c4cccc(C)n4)cc23)CC1 [Compound 1179, [4-(methylamino)cyclohexyl] 6-[5-(6-methyl-2-pyridyl)-1H-pyrazol-4-yl]quinoline-4-carboxylate] | 0.398 to 3.16 | 25.1 to 158
25 | Cc1cccc(-c2[nH]ncc2-c2ccc3ncc(C(=O)O[C@H]4C[C@H](N)C4)cc3c2)n1 [Compound 1181, (3-aminocyclobutyl) 6-[5-(6-methyl-2-pyridyl)-1H-pyrazol-4-yl]quinoline-3-carboxylate] | 0.0398 to 0.316 | < 20
26 | Cc1cccc(-c2[nH]ncc2-c2ccc3ncc(C(=O)OCCCC4CCNCC4)cc3c2)n1 [Compound 1182, 3-(4-piperidyl)propyl 6-[5-(6-methyl-2-pyridyl)-1H-pyrazol-4-yl]quinoline-3-carboxylate] | 0.0398 to 0.316 | 25.1 to 158
27 | Cc1cccc(-c2[nH]cnc2-c2ccc3ncc(-c4csc(C(=O)OC[C@@H]5CCCN5)c4)cc3c2)n1 [Compound 1183, [(2S)-pyrrolidin-2-yl]methyl 4-[6-[5-(6-methyl-2-pyridyl)-1H-imidazol-4-yl]-3-quinolyl]thiophene-2-carboxylate] | < 0.0316 | 25.1 to 158
